Measurements reported in US6239171A, “Tocotrienols and tocotrienol-like compounds and methods for their use” (Lipogenics, Inc., priority 1998, dated 2001).

What was measured:
[1] = test system: hypercholesterolemic swine; test: Serum cholesterol, apolipoproteins, triglycerides, glucose, insulin and glucagon in hypercholesterolemic swine; assay type: in vivo; details: for Apo A1, percentage of control / Apo A1 concentration in serum / Apo B concentration in serum / Apo B, percentage of control / Triglycerides concentration in serum / Triglycerides, percentage of control: 6 weeks
Procedure: All assays conducted on chicken or swine serum were done following the protocols described in A. A. Qureshi et al., "Lowering Of Serum Cholesterol In Hypercholesterolemic Humans By Tocotrienols" (Palmvitee), Am. […] Plasma insulin, glucagon and TNF levels were measured using radioinnumoassay kits from Ventrex Laboratories, Inc. (Portland, Me.), ICN Biomedicals, Inc. (Costa Mesa, Calif.) and Genzyme Corp. (Cambridge, Mass.), respectively.
We next measured the effects of various tocotrienols from rice bran on HMG-CoA reductase and cholesterol 7α-hydroxylase in hypercholesterolemic swine. Since pigs are very similar to humans in their cholesterol metabolism, they provide a useful model from which to study hypercholesterolemia and related diseases. […] As a result, the pigs develop complicated atherosclerotic plaques that closely resemble advanced atherosclerotic lesions found in humans.
Each group of three 5-month old swine was administered either a control diet or a control diet supplemented with 50 ppm of TRF or 50 ppm of an individual tocotrienol. […] After a 12 hour fast, serum and plasma samples were taken a 0 hrs, 21 days and 42 days from the start of the feeding period. After taking serum and plasma samples from the pigs at the end of the 42 day period, all of the swine were fasted for a total of 40 hours, followed by a 48 hour refeeding period. One swine from each group was sacrificed at that time and the liver, intestine, lung, heart, loin muscle, adipose tissue and ham muscle were removed.
The experimental conditions were the same, except that the two remaining swine in each group were transferred to the unsupplemented control diet following the 42 day feeding period. After an additional 70 days, serum and plasma samples were collected from these swine after a 12 hour fast for testing.

chickens = test: Serum cholesterol, apolipoproteins, triglycerides and glucose in chickens fed supplemented diets; assay type: in vivo, chicken; details: 4 weeks; for APO A1, percentage of control / APO A1 in serum / APO B in serum / APO B, percentage of control / DL-Cholesterol/Total Cholesterol / DL-Cholesterol/Total Cholesterol, percentage of control / Glucose in serum / Glucose, percentage of control / HDL-Cholesterol in serum / HDL-Cholesterol, percentage of control / HDL-Cholesterol/LDL-Cholesterol / HDL-Cholesterol/LDL-Cholesterol, percentage of control / LDL-Cholesterol in serum / LDL-Cholesterol, percentage of control / Total Cholesterol in serum / Total Cholesterol, percentage of control / Triglycerides in serum / Triglycerides, percentage of control: control diet + 50 ppm
Excerpt: All assays conducted on chicken or swine serum were done following the protocols described in A. A. Qureshi et al., "Lowering Of Serum Cholesterol In Hypercholesterolemic Humans By Tocotrienols" (Palmvitee), Am. J. Clin. Nutr., 53, pp. 1021S-26S (1991). All enzymatic assays were done following the protocols described in A. A. Qureshi et al., "Effects of Cereals and Culture Filtrate of Trichoderma viride on Lipid Metabolism of Swine", Lipids, 17, pp. 924 (1982). Plasma insulin, glucagon and TNF levels were measured using radioinnumoassay kits from Ventrex Laboratories, Inc. (Portland, Me.), ICN Biomedicals, Inc. (Costa Mesa, Calif.) and Genzyme Corp. (Cambridge, Mass.), respectively. […]
Each group of 6 chickens (6-week old female while leghorn) was administered the chick mash diet described in Example 5, supplemented with one of three different amounts of waxes (sterols), 50 ppm of TRF (prepared as in Example 2) or 5% equivalent of the methanol insoluble fraction Louisiana rice bran oil. […] The birds were fasted for a period of 14 hours prior to sacrifice (at 0800 hours). […]

[2] = 70 days on control diet after 42 days at 50 ppm

## CC(C)=CCC/C(C)=C/CC/C(C)=C/CCC1CCc2cc(O)ccc2O1 (centres unmarked) [P25, 3,4-dihydro-2-(4,8,12-trimethyltrideca-3'(E),7'(E),11'-trienyl)-2H-1-benzopyran-6-ol]
[1]; [2]
  HDL-CHOLESTEROL CONCENTRATION IN SERUM: 32.65 mg/100 ml
  HDL-CHOLESTEROL, Percentage of Control Activity: 114.29%
  HDL-CHOLESTEROL, percentage of baseline value: 149.36%
  HDL:LDL CHOLESTEROL, Percentage of Control Activity: 82.06%
  LDL-CHOLESTEROL CONCENTRATION IN SERUM: 233.75 mg/100 ml
  LDL-CHOLESTEROL, Percentage of Control Activity: 90.17%
  LDL-CHOLESTEROL, percentage of baseline value: 128.17%
  TOTAL CHOLESTEROL CONCENTRATION IN SERUM: 268.90 mg/100 ml
  TOTAL CHOLESTEROL, Percentage of Control Activity: 75.60%
  TOTAL CHOLESTEROL, percentage of baseline value: 124.45%
[1]; control diet + 50 ppm
  Apo A1, percentage of control: 104.05%
  Apo A1 concentration in serum: 26.73 ± 1.22 mg/100 ml
  Apo B concentration in serum: 106.63 ± 1.72 mg/100 ml
  Apo B, percentage of control: 72.16%
  Triglycerides concentration in serum: 62.00 ± 1.19 mg/100 ml
  Triglycerides, percentage of control: 80.98%
[1]; control diet + 50 ppm, 21 days
  HDL-CHOLESTEROL CONCENTRATION IN SERUM: 25.68 mg/100 ml
  HDL-CHOLESTEROL, percentage of baseline value: 117.47%
  HDL:LDL CHOLESTEROL, percentage of baseline value: 89.20%
  LDL-CHOLESTEROL CONCENTRATION IN SERUM: 191.05 mg/100 ml
  LDL-CHOLESTEROL, percentage of baseline value: 104.76%
  TOTAL CHOLESTEROL CONCENTRATION IN SERUM: 229.90 mg/100 ml
  TOTAL CHOLESTEROL, percentage of baseline value: 106.33%
[1]; control diet + 50 ppm, 42 days
  Glucagon: 274.41 pg/mL
  Glucagon, percentage of control: 83.05%
  Glucose: 71.89 mg/100 ml
  Glucose, percentage of control: 74.89%
  HDL-CHOLESTEROL CONCENTRATION IN SERUM: 31.81 mg/100 ml
  HDL-CHOLESTEROL, Percentage of Control Activity: 123.75%
  HDL-CHOLESTEROL, percentage of baseline value: 145.52%
  HDL:LDL CHOLESTEROL, Percentage of Control Activity: 55.59%
  HDL:LDL CHOLESTEROL, percentage of baseline value: 74.58%
  Insulin: 20.9 µU/mL
  Insulin, percentage of control: 101.90%
  LDL-CHOLESTEROL CONCENTRATION IN SERUM: 198.01 mg/100 ml
  LDL-CHOLESTEROL, Percentage of Control Activity: 65.51%
  LDL-CHOLESTEROL, percentage of baseline value: 107.48%
  TOTAL CHOLESTEROL CONCENTRATION IN SERUM: 237.64 mg/100 ml
  TOTAL CHOLESTEROL, Percentage of Control Activity: 68.60%
  TOTAL CHOLESTEROL, percentage of baseline value: 107.60%
chickens; 50 ppm in diet
  increase in the HDL-/LDL-cholesterol ratio: > 100%
  rank as cholesterol inhibitor among compounds tested (in words): most potent cholesterol inhibitors
  reduction of serum cholesterol: ~33%
chickens
  APO A1, percentage of control: 98.78%
  APO A1 in serum: 138.70 mg/100 ml
  APO B in serum: 25.20 mg/100 ml
  APO B, percentage of control: 76.13%
  DL-Cholesterol/Total Cholesterol: 0.73
  DL-Cholesterol/Total Cholesterol, percentage of control: 125.30%
  Glucose in serum: 196.10 mg/100 ml
  Glucose, percentage of control: 87.43%
  HDL-Cholesterol in serum: 70.12 ± 1.25 mg/dL
  HDL-Cholesterol, percentage of control: 53.82%
  HDL-Cholesterol/LDL-Cholesterol: 3.05
  HDL-Cholesterol/LDL-Cholesterol, percentage of control: 200.60%
  LDL-Cholesterol in serum: 23.00 ± 1.27 mg/dL
  LDL-Cholesterol, percentage of control: 41.77%
  Total Cholesterol in serum: 95.51 ± 1.11 mg/dL
  Total Cholesterol, percentage of control: 66.90%
  Triglycerides in serum: 54.65 mg/100 ml
  Triglycerides, percentage of control: 73.82%

## CC(C)=CCC/C(C)=C/CC/C(C)=C/CCC1(C)CCc2cc(O)c(C)c(C)c2O1 (centres unmarked) [γ-T3, γ-tocotrienol, reference compound]
[1]; [2]
  HDL-CHOLESTEROL CONCENTRATION IN SERUM: 30.47 mg/100 ml
  HDL-CHOLESTEROL, Percentage of Control Activity: 106.66%
  HDL-CHOLESTEROL, percentage of baseline value: 139.39%
  HDL:LDL CHOLESTEROL, Percentage of Control Activity: 84.52%
  LDL-CHOLESTEROL CONCENTRATION IN SERUM: 224.66 mg/100 ml
  LDL-CHOLESTEROL, Percentage of Control Activity: 88.61%
  LDL-CHOLESTEROL, percentage of baseline value: 125.95%
  TOTAL CHOLESTEROL CONCENTRATION IN SERUM: 271.70 mg/100 ml
  TOTAL CHOLESTEROL, Percentage of Control Activity: 78.80%
  TOTAL CHOLESTEROL, percentage of baseline value: 129.66%
[1]; control diet + 50 ppm
  Apo A1, percentage of control: 102.06%
  Apo A1 concentration in serum: 26.22 ± 1.11 mg/100 ml
  Apo B concentration in serum: 114.29 ± 1.79 mg/100 ml
  Apo B, percentage of control: 77.34%
  Triglycerides concentration in serum: 61.78 mg/100 ml
  Triglycerides, percentage of control: 80.69%
[1]; control diet + 50 ppm, 21 days
  HDL-CHOLESTEROL CONCENTRATION IN SERUM: 25.27 mg/100 ml
  HDL-CHOLESTEROL, percentage of baseline value: 115.59%
  HDL:LDL CHOLESTEROL, percentage of baseline value: 89.83%
  LDL-CHOLESTEROL CONCENTRATION IN SERUM: 185.12 mg/100 ml
  LDL-CHOLESTEROL, percentage of baseline value: 103.78%
  TOTAL CHOLESTEROL CONCENTRATION IN SERUM: 225.20 mg/100 ml
  TOTAL CHOLESTEROL, percentage of baseline value: 107.39%
[1]; control diet + 50 ppm, 42 days
  Glucagon: 285.41 pg/mL
  Glucagon, percentage of control: 86.38%
  Glucose: 74.40 mg/100 ml
  Glucose, percentage of control: 77.51%
  HDL-CHOLESTEROL CONCENTRATION IN SERUM: 28.55 mg/100 ml
  HDL-CHOLESTEROL, Percentage of Control Activity: 111.06%
  HDL-CHOLESTEROL, percentage of baseline value: 130.60%
  HDL:LDL CHOLESTEROL, Percentage of Control Activity: 60.58%
  HDL:LDL CHOLESTEROL, percentage of baseline value: 82.84%
  Insulin: 21.2 µU/mL
  Insulin, percentage of control: 103.46%
  LDL-CHOLESTEROL CONCENTRATION IN SERUM: 193.80 mg/100 ml
  LDL-CHOLESTEROL, Percentage of Control Activity: 66.22%
  LDL-CHOLESTEROL, percentage of baseline value: 108.65%
  TOTAL CHOLESTEROL CONCENTRATION IN SERUM: 233.93 mg/100 ml
  TOTAL CHOLESTEROL, Percentage of Control Activity: 71.00%
  TOTAL CHOLESTEROL, percentage of baseline value: 111.76%
chickens
  APO A1, percentage of control: 99.57%
  APO A1 in serum: 139.80 mg/100 ml
  APO B in serum: 29.53 mg/100 ml
  APO B, percentage of control: 89.21%
  DL-Cholesterol/Total Cholesterol: 0.67
  DL-Cholesterol/Total Cholesterol, percentage of control: 114.50%
  Glucose in serum: 208.70 mg/100 ml
  Glucose, percentage of control: 93.05%
  HDL-Cholesterol in serum: 78.39 ± 0.96 mg/dL
  HDL-Cholesterol, percentage of control: 93.70%
  HDL-Cholesterol/LDL-Cholesterol: 2.09
  HDL-Cholesterol/LDL-Cholesterol, percentage of control: 137.50%
  LDL-Cholesterol in serum: 37.52 ± 0.81 mg/dL
  LDL-Cholesterol, percentage of control: 68.14%
  Total Cholesterol in serum: 116.86 ± 1.47 mg/dL
  Total Cholesterol, percentage of control: 81.85%
  Triglycerides in serum: 61.07 mg/100 ml
  Triglycerides, percentage of control: 82.49%
